One experiment relates to mice. Briefly: hypnotic activity: loss of righting reflex after intravenous administration in mice. The class given is in vivo. Conditions: dose causing loss of righting reflex for minimum 30 seconds in 50% of mice, intravenous injection over 10 seconds; for ED50: Mus musculus, iv, read-out: HD50 (the source's name). How it is done:
The hypnotic potency of the α-amino acid phenyl ester derivatives of the invention was determined upon their intravenous administration in mice. The dose required to cause a loss of righting reflex for a minimum period of 30 seconds in 50% of treated mice after intravenous injection over 10 seconds was determined. This dose is termed the HD50 (hypnotic dose50) and is expressed in μmol.kg^−1.

A further experiment concerns the target GABAA receptors. The experiment can be described thus: inhibition of [35S]-TBPS binding to rat whole brain membranes. Conditions: concentration required to inhibit 50% of [35S]-TBPS binding. The text has this:
γ-Aminobutyric acid (GABA) is the major inhibitory neurotransmitter within the central nervous system and it is probable that compounds potentiating the effects of GABA at GABAA receptors will induce anaesthesia (S. A. Zimmerman, M. V. Jones and N. L. Harrison, J. Pharmacol. Exp. Therap. 1994, 270, 987-991; N. P. Franks and W. R. Lieb, Nature 1994, 367, 607-614). Indeed there is compelling evidence that many hypnotics exert their biological activity via modulation of GABAA receptors, including steroids, barbiturates, benzodiazepines and propofol (D. L. Tanelian, P. Kosek, I. Mody and M. B. Maclver, Anesthesiology 1993, 78, 757-776).
The in vitro effect of the compounds of the invention at GABAA receptors was assessed through determination of their ability to inhibit [^35S]-TBPS ([^35S]-tert-butyl bicyclophosphorothionate) binding to rat whole brain membranes. The concentration of α-amino acid phenyl ester derivative required to inhibit 50% of binding of [^35S]-TBPS was determined. These in vitro experiments were carried out as described in detail by Anderson et al., J.Med.Chem. 1997, 40, 1668-1681.

Counter-ions that a name gives are not always drawn.

`CCC(C(=O)Oc1c(OC)cccc1OC)N(CC(C)OC)CC(C)OC.Cl` (racemic) [Example 7ae, (±)-2-[N-bis(2-methoxypropyl)amino]butyric acid, 2,6-dimethoxyphenyl ester hydrochloride (1:1) salt] yielded an HD50 with mice of 27 µmol/kg.
As for `CC[C@@H](C(=O)Oc1c(OC)cc(C)cc1OC)N(CCOC)CCOC` [Example 7v, S-(−)-2-[N-bis(2-methoxyethyl)amino]butyric acid, 2,6-dimethoxy-4-methylphenyl ester hydrochloride (1:1) salt], the IC50 at GABAA receptors was 14 µM. The ED50 in the experiment with mice was found to be 35 µmol/kg.
For the compound `CC[C@H](C(=O)Oc1c(OC)cc(C)cc1OC)N(CCOC)CCOC` [Example 7a, R-(+)-2-[N-bis(2-methoxyethyl)amino]butyric acid, 2,6-dimethoxy-4-methylphenyl ester hydrochloride (1:1) salt], the IC50 at GABAA receptors stood at 22 µM. Also, the ED50 with mice was found to be 21 µmol/kg.
The compound `CCCCC(C(=O)Oc1c(OC)cccc1OC)N(CCOC)CCOC.Cl` (stereo not shown) [Example 7ah, ξ-2-[N-bis(2-methoxyethyl)amino]hexanoic acid, 2,6-dimethoxyphenyl ester hydrochloride (1:1) salt] had an HD50 in the experiment on mice of 8 µmol/kg.
As for `CCOCCN(CCOCC)C(C)C(=O)Oc1c(OC)cccc1OC` (single isomer, unassigned; (+)) [Example 7w, (+)-2-[N-bis(2-ethoxyethyl)amino]propionic acid, 2,6-dimethoxyphenyl ester hydrochloride (1:1) salt], at GABAA receptors, the half-inhibitory concentration (IC50) is ~100 µM. Further, the HD50 in the experiment with mice was 35 µmol/kg.
Turning to `COCCN(C)C(C)C(=O)Oc1c(OC)cccc1OC.Cl` (stereo not shown) [Example 7p, 2-[N-methyl-(2-methoxy)ethylamino]propionic acid, 2,6-dimethoxyphenyl ester hydrochloride (1:1) salt], on GABAA receptors, the IC50 is ~100 µM. In the experiment on mice, this compound gave an HD50 of 72 µmol/kg.
Consider `CCOCCN(CCOCC)C(CC)C(=O)Oc1c(OC)cccc1OC` (racemic) [Example 7l, (±)-2-[N-bis(2-ethoxyethyl)amino]butyric acid, 2,6-dimethoxyphenyl ester hydrochloride (1:1) salt], for which the half-maximal inhibitory concentration (IC50) at GABAA receptors is ~100 µM.
In the case of `CCC(C(=O)Oc1c(OC)cccc1OC)N(CCOC)CCOC` (racemic) [Example 7c, (±)-2-[N-bis(2-methoxyethyl)amino]butyric acid, 2,6-dimethoxyphenyl ester hydrochloride (1:1) salt], the IC50 on GABAA receptors is 10 µM. The ED50 in the experiment on mice stood at 19 µmol/kg.
As for `COc1cc(C)cc(OC)c1OC(=O)[C@@H](C)N(C)Cc1ccccc1` [Example 7h, R-(+)-2-[N-methylbenzylamino]propionic acid, 2,6-dimethoxy-4-methylphenyl ester hydrochloride (1:1) salt], at GABAA receptors, the concentration for half-maximal inhibition (IC50) stood at 27 µM. Further, the ED50 in the experiment with mice came to 56 µmol/kg.
Regarding `CCCCC(C(=O)Oc1c(OC)cccc1OC)N(CCOC)CCOC.Cl` (racemic) [Example 7ad, (±)-2-[N-bis(2-methoxyethyl)amino]hexanoic acid, 2,6-dimethoxyphenyl ester hydrochloride (1:1) salt], the HD50 in the experiment with mice was <12 µmol/kg.
Turning to `CCOCCN(CCOCC)C(C)C(=O)Oc1c(OC)cccc1OC` (racemic) [Example 7d, (±)-2-[N-bis(2-ethoxyethyl)amino]propionic acid, 2,6-dimethoxyphenyl ester hydrochloride (1:1) salt], at GABAA receptors, the 50% inhibitory concentration (IC50) is ≤ 100 µM. Also, the ED50 in the experiment on mice worked out at 68 µmol/kg.
With `CCOCCN(CCOCC)[C@@H](CC)C(=O)Oc1c(OC)cccc1OC` [Example 7aa, S-(−)-2-[N-bis(2-ethoxyethyl)amino]butyric acid, 2,6-dimethoxyphenyl ester hydrochloride (1:1) salt], the half-maximal inhibitory concentration (IC50) on GABAA receptors is 11 µM. In the experiment on mice, the ED50 was found to be 22 µmol/kg.
For `CCCCC(C(=O)Oc1c(OC)cc(C)cc1OC)N(CCOC)CCOC.Cl` (racemic) [Example 7ag, (±)-2-[N-bis(2-methoxyethyl)amino]hexanoic acid, 2,6-dimethoxy-4-methylphenyl ester hydrochloride (1:1) salt], the HD50 with mice was determined as 34 µmol/kg.
Regarding `CCCC(C(=O)Oc1c(OC)cccc1OC)N(CCOC)CCOC` (racemic) [Example 7s, (±)-2-[N-bis(2-methoxyethyl)amino]pentanoic acid, 2,6-dimethoxyphenyl ester hydrochloride (1:1) salt], at GABAA receptors, the concentration for half-maximal inhibition (IC50) was found to be 4.2 µM. Moreover, the ED50 with mice was determined as 12 µmol/kg.
Taken in the same sequence, the figures for `COc1cccc(OC)c1OC(=O)C(C)N(C)CCc1ccccc1` (stereo not shown) [Example 7m, 2-[N-methylphenethylamino]propionic acid, 2,6-dimethoxyphenyl ester hydrochloride (1:1) salt] were 59 µM and 38 µmol/kg.
Taken in the same sequence, the figures for `COc1cccc(OC)c1OC(=O)C(C)N1CCOCC1` (stereo not shown) [Reference, 2,6-dimethoxyphenyl 2-morpholinopropionate, reference compound] were 766 µM and 139 µmol/kg.
Regarding `CCOCCN(CCOCC)C(C)C(=O)Oc1c(OC)cccc1OC` (single isomer, unassigned; (-)) [Example 7x, (−)-2-[N-bis(2-ethoxyethyl)amino]propionic acid, 2,6-dimethoxyphenyl ester hydrochloride (1:1) salt], at GABAA receptors, the IC50 is < 100 µM. In the experiment with mice, the HD50 amounted to 46 µmol/kg.
With `CCOc1cccc(OCC)c1OC(=O)C(CC)N(CCOC)CCOC` (racemic) [Example 7n, (±)-2-[N-bis(2-methoxyethyl)amino]butyric acid, 2,6-diethoxyphenyl ester hydrochloride (1:1) salt], the 50% inhibitory concentration (IC50) at GABAA receptors is 20 µM. The ED50 in the experiment with mice turned out to be 27 µmol/kg.
In the experiment on mice, `CCCC(C(=O)Oc1c(OC)cc(C)cc1OC)N(CCOC)CCOC.Cl` (racemic) [Example 7af, (±)-2-[N-bis(2-methoxyethyl)amino]pentanoic acid, 2,6-dimethoxy-4-methylphenyl ester hydrochloride (1:1) salt] gave an HD50 of 34 µmol/kg.
Regarding `CCC(C(=O)Oc1c(OC(C)C)cccc1OC(C)C)N(CCOC)CCOC` (racemic) [Example 7o, (±)-2-[N-bis(2-methoxyethyl)amino]butyric acid, 2,6-di-(1-methyl)ethoxyphenyl ester hydrochloride (1:1) salt], at GABAA receptors, the IC50 is < 100 µM. For the same compound, the ED50 in the experiment with mice was 64 µmol/kg.
The matching figures for `COc1cc(C)cc(OC)c1OC(=O)C(C)N(C)Cc1ccccc1` (racemic) [Example 7g, (±)-2-[N-methylbenzylamino]propionic acid, 2,6-dimethoxy-4-methylphenyl ester hydrochloride (1:1) salt]: 22 µM and 45 µmol/kg.
Regarding `COCCN(CCOC)[C@H](C)C(=O)Oc1c(OC)cc(C)cc1OC` [Example 7y, R-(+)-2-[N-bis(2-methoxyethyl)amino]propionic acid, 2,6-dimethoxy-4-methylphenyl ester hydrochloride (1:1) salt], at GABAA receptors, the IC50 was < 100 µM. Also, the ED50 with mice is 18 µmol/kg.
For `CCC(C(=O)Oc1c(OC)cc(OC)cc1OC)N(CCOC)CCOC` (racemic) [Example 7t, (±)-2-[N-bis(2-methoxyethyl)amino]butyric acid, 2,4,6-trimethoxyphenyl ester hydrochloride (1:1) salt], the IC50 on GABAA receptors was determined as 14 µM. Moreover, in the experiment on mice, the ED50 is 21 µmol/kg.
On to `COCCN(CCOC)C(C)C(=O)Oc1c(OC)cccc1OC` (racemic) [Example 7f, (±)-2-[N-bis(2-methoxyethyl)amino]propionic acid, 2,6-dimethoxyphenyl ester hydrochloride (1:1) salt], for which the IC50 on GABAA receptors is < 100 µM. In addition, the ED50 in the experiment on mice is 55 µmol/kg.
“(±)-2-[N-bis(2-methoxyethyl amino]-3-methylbutyric acid, 2,6-dimethoxy-4-methylphenylester hydrochloride (1:1) salt [Example 7al]”: the HD50 in the experiment on mice amounted to 44 µmol/kg.
Take `COCCN(CCOC)C(CC(C)C)C(=O)Oc1c(OC)cc(C)cc1OC.Cl` (racemic) [Example 7aj, (±)-2-[N-bis(2-methoxyethyl)amino]4-methylpentanoic acid, 2,6-dimethoxy-4-methylphenylester hydrochloride (1:1) salt]: the HD50 entry with mice is listed as “convulsant”.
Same read-out and setting: next, `COCCN(C)C(CC(C)C)C(=O)Oc1c(OC)cc(C)cc1OC.Cl` (racemic) [Example 7ak, (±)-2-[N-(2-methoxyethyl)-N-methylamino]-4-methylpentanoic acid, 2,6-dimethoxy-4-methylphenylester hydrochloride (1:1) salt]: 28 µmol/kg; `CCCCC(C(=O)Oc1c(OC)cccc1OC)N(CCOC)CCOC.Cl` (stereo not shown) [Example 7ai, ξ-2-[N-bis(2-methoxyethyl)amino]hexanoic acid, 2,6-dimethoxyphenyl ester hydrochloride (1:1) salt]: 47 µmol/kg.

The values above are taken from patent publication US6451854B1, “α-amino acid phenyl ester derivatives” (Akzo Nobel N.V., priority 1998, dated 2002).
